Data on 18 compounds can be found in patent US9371280B2, “Substituted pyrrolidine-2-carboxamides” (Hoffmann-La Roche Inc., priority 2012, dated 2016).

The target of this experiment is interaction between p53 and MDM2 proteins (recombinant GST-tagged MDM2) (Homo sapiens, UniProt Q00987). In words: HTRF assay of inhibition of the p53-MDM2 interaction (GST-MDM2 / biotinylated p53 peptide).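 Further: FRET read-out from Eu-labelled anti-GST antibody to streptavidin-APC, with 90 nM N-terminally biotinylated p53 peptide and 160 ng/ml GST-MDM2 in Tris-borate saline containing 1 mM DTT, 384-well format.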 Format: binding.
Chain of interaction between p53 and MDM2 proteins (recombinant GST-tagged MDM2) (Q00987 whole entry): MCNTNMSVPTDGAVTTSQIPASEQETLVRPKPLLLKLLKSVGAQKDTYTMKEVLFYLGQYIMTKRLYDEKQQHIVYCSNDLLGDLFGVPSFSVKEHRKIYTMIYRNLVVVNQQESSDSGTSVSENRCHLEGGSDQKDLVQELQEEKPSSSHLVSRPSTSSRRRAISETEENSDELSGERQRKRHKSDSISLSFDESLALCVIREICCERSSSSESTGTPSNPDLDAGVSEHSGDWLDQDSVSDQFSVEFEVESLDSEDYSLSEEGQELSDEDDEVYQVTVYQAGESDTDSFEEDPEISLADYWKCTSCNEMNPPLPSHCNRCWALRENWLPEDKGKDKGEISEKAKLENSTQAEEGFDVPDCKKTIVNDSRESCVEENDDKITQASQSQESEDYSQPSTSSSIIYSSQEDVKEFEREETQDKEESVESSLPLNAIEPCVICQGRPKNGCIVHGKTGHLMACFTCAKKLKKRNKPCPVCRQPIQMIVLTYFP

Where a name gives a salt, the structure may show the parent alone. Read-outs that look alike come from different tables or passages of the source.

Experimental: The ability of the compounds to inhibit the interaction between p53 and MDM2 proteins was measured by an HTRF (homogeneous time-resolved fluorescence) assay in which recombinant GST-tagged MDM2 binds to a peptide that resembles the MDM2-interacting region of p53 (Lane et al.). Binding of GST-MDM2 protein and p53-peptide (biotinylated on its N-terminal end) is registered by the FRET (fluorescence resonance energy transfer) between Europium (Eu)-labeled anti-GST antibody and streptavidin-conjugated Allophycocyanin (APC).
Test is performed in black flat-bottom 384-well plates (Costar) in a total volume of 40 uL containing: 90 nM biotinylate peptide, 160 ng/ml GST-MDM2, 20 nM streptavidin-APC (PerkinElmerWallac), 2 nM Eu-labeled anti-GST-antibody (PerkinElmerWallac), 0.02% bovine serum albumin (BSA), 1 mM dithiothreitol (DTT) and 20 mM Tris-borate saline (TBS) buffer as follows: Add 10 uL of GST-MDM2 (640 ng/ml working solution) in reaction buffer to each well. […] Incubate at 37° C. for 1 h.

For the compound `COCCOCCOCCOCCOC(=O)COC(=O)c1ccc(NC(=O)[C@@H]2N[C@@H](CC(C)(C)C)[C@](C#N)(c3ccc(Cl)cc3F)[C@H]2c2cccc(Cl)c2F)c(OC)c1` [Example 73, 4-{[(2R,3S,4R,5S)-4-(4-Chloro-2-fluoro-phenyl)-3-(3-chloro-2-fluoro-phenyl)-4-cyano-5-(2,2-dimethyl-propyl)-pyrrolidine-2-carbonyl]-amino}-3-methoxy-benzoic acid 2-{2-[2-(2-methoxy-ethoxy)-ethoxy]-ethoxy}-ethoxycarbonylmethyl ester], the IC50 (HTRF, 0.02% BSA, 37° C. 1 h) is 0.0196 µM.

As to `COc1cc(C(=O)NCCN2CCN(C)CC2)ccc1NC(=O)[C@@H]1N[C@@H](CC(C)(C)C)[C@](C#N)(c2ccc(Cl)cc2F)[C@H]1c1cccc(Cl)c1F` [Example 26, (2R,3S,4R,5S)-4-(4-Chloro-2-fluoro-phenyl)-3-(3-chloro-2-fluoro-phenyl)-4-cyano-5-(2,2-dimethyl-propyl)-pyrrolidine-2-carboxylic acid {2-methoxy-4-[2-(4-methyl-piperazin-1-yl)-ethylcarbamoyl]-phenyl}-amide, hydrochloride], the IC50 (HTRF, 0.02% BSA, 37° C. 1 h) is 0.00867 µM. Turning to `COc1cc(C(=O)OCC(N)=O)ccc1NC(=O)[C@@H]1N[C@@H](CC(C)(C)C)[C@](C#N)(c2ccc(Cl)cc2F)[C@H]1c1cccc(Cl)c1F` [Example 65, 4-{[(2R,3S,4R,5S)-4-(4-Chloro-2-fluoro-phenyl)-3-(3-chloro-2-fluoro-phenyl)-4-cyano-5-(2,2-dimethyl-propyl)-pyrrolidine-2-carbonyl]-amino}-3-methoxy-benzoic acid carbamoylmethyl ester], the 50% inhibitory concentration (IC50) (HTRF, 0.02% BSA, 37° C. 1 h) was 0.0129 µM. Regarding `C=CCOC(=O)[C@H](CCCCNC(=O)OC(C)(C)C)NC(=O)COC(=O)c1ccc(NC(=O)[C@@H]2N[C@@H](CC(C)(C)C)[C@](C#N)(c3ccc(Cl)cc3F)[C@H]2c2cccc(Cl)c2F)c(OC)c1` [Example 78, 4-{[(2R,3S,4R,5S)-4-(4-Chloro-2-fluoro-phenyl)-3-(3-chloro-2-fluoro-phenyl)-4-cyano-5-(2,2-dimethyl-propyl)-pyrrolidine-2-carbonyl]-amino}-3-methoxy-benzoic acid ((S)-1-allyloxycarbonyl-5-tert-butoxycarbonylamino-pentylcarbamoyl)-methyl ester], under “HTRF, 0.02% BSA, 37° C. 1 h”, the IC50 was determined as 0.0166 µM.

Take `CCN(CC)CCOC(=O)c1ccc(NC(=O)[C@@H]2N[C@@H](CC(C)(C)C)[C@](C#N)(c3ccc(Cl)cc3F)[C@H]2c2cccc(Cl)c2F)c(OC)c1` [Example 16, 4-{[(2R,3S,4R,5S)-4-(4-Chloro-2-fluoro-phenyl)-3-(3-chloro-2-fluoro-phenyl)-4-cyano-5-(2,2-dimethyl-propyl)-pyrrolidine-2-carbonyl]-amino}-3-methoxy-benzoic acid 2-diethylamino-ethyl ester]: the concentration for half-maximal inhibition (IC50) (HTRF, 0.02% BSA, 37° C. 1 h) stood at 0.0501 µM. Take `COc1cc(C(=O)OCCCC(=O)O)ccc1NC(=O)[C@@H]1N[C@@H](CC(C)(C)C)[C@](C#N)(c2ccc(Cl)cc2F)[C@H]1c1cccc(Cl)c1F` [Example 36, 4-{[(2R,3S,4R,5S)-4-(4-Chloro-2-fluoro-phenyl)-3-(3-chloro-2-fluoro-phenyl)-4-cyano-5-(2,2-dimethyl-propyl)-pyrrolidine-2-carbonyl]-amino}-3-methoxy-benzoic acid 3-carboxy-propyl ester]: the IC50 was determined as 0.00498 µM.

In the case of `COCCOC(=O)c1ccc(NC(=O)[C@@H]2N[C@@H](CC(C)(C)C)[C@](C#N)(c3ccc(Cl)cc3F)[C@H]2c2cccc(Cl)c2F)c(OC)c1` [Example 10, 2-Methoxyethyl 4-((2R,3S,4R,5S)-3-(3-chloro-2-fluorophenyl)-4-(4-chloro-2-fluorophenyl)-4-cyano-5-neopentylpyrrolidine-2-carboxamido)-3-methoxybenzoate], under “HTRF, 0.02% BSA, 37° C. 1 h”, the 50% inhibitory concentration (IC50) stood at 0.0107 µM.

On to “4-{[(2R,3S,4R,5S)-4-(4-Chloro-2-fluoro-phenyl)-3-(3-chloro-2-fluoro-phenyl)-4-cyano-5-(2,2-dimethyl-propyl)-pyrrolidine-2-carbonyl]-amino}-3-methoxy-benzoic acid, polyethylene glycol-200 ester, trifluoroacetate salt [Example 45]”, for which the IC50 (read-out: IC50 (uM, 0.02% BSA), HTRF, 0.02% BSA, 37° C. 1 h) amounted to 0.0105 µM. Take `COc1cc(C(=O)OCCOCCOCCOCCO)ccc1NC(=O)[C@@H]1N[C@@H](CC(C)(C)C)[C@](C#N)(c2ccc(Cl)cc2F)[C@H]1c1cccc(Cl)c1F` [Example 57, 4-{[(2R,3S,4R,5S)-4-(4-Chloro-2-fluoro-phenyl)-3-(3-chloro-2-fluoro-phenyl)-4-cyano-5-(2,2-dimethyl-propyl)-pyrrolidine-2-carbonyl]-amino}-3-methoxy-benzoic acid 2-{2-[2-(2-hydroxy-ethoxy)-ethoxy]-ethoxy}-ethyl ester, hydrochloride]: the IC50 (HTRF, 0.02% BSA, 37° C. 1 h) amounted to 0.0172 µM. `COCCOCCOCCOCCOCCOC(=O)c1ccc(NC(=O)[C@@H]2N[C@@H](CC(C)(C)C)[C@](C#N)(c3ccc(Cl)cc3F)[C@H]2c2cccc(Cl)c2F)c(OC)c1` [Example 51, 4-{[(2R,3S,4R,5S)-4-(4-Chloro-2-fluoro-phenyl)-3-(3-chloro-2-fluoro-phenyl)-4-cyano-5-(2,2-dimethyl-propyl)-pyrrolidine-2-carbonyl]-amino}-3-methoxy-benzoic acid 2-(2-{2-[2-(2-methoxy-ethoxy)-ethoxy]-ethoxy}-ethoxy)-ethyl ester, hydrochloride]: the IC50 (HTRF, 0.02% BSA, 37° C. 1 h) was found to be 0.01 µM.

Regarding `COc1cc(C(=O)OCC(=O)NCC2COC(C)(C)O2)ccc1NC(=O)[C@@H]1N[C@@H](CC(C)(C)C)[C@](C#N)(c2ccc(Cl)cc2F)[C@H]1c1cccc(Cl)c1F` (stereo partly drawn) [Example 67, 4-{[(2R,3S,4R,5S)-4-(4-Chloro-2-fluoro-phenyl)-3-(3-chloro-2-fluoro-phenyl)-4-cyano-5-(2,2-dimethyl-propyl)-pyrrolidine-2-carbonyl]-amino}-3-methoxy-benzoic acid [(2,2-dimethyl-[1,3]dioxolan-4-ylmethyl)-carbamoyl]-methyl ester], under “HTRF, 0.02% BSA, 37° C. 1 h”, the IC50 is 0.0118 µM. With `COc1cc(C(=O)O[C@@H]2O[C@H](C(=O)O)[C@@H](O)[C@H](O)[C@H]2O)ccc1NC(=O)[C@@H]1N[C@@H](CC(C)(C)C)[C@](C#N)(c2ccc(Cl)cc2F)[C@H]1c1cccc(Cl)c1F` [Example 40, (2S,3S,4S,5R,6S)-6-(4-{[(2R,3S,4R,5S)-4-(4-Chloro-2-fluoro-phenyl)-3-(3-chloro-2-fluoro-phenyl)-4-cyano-5-(2,2-dimethyl-propyl)-pyrrolidine-2-carbonyl]-amino}-3-methoxy-benzoyloxy)-3,4,5-trihydroxy-tetrahydro-pyran-2-carboxylic acid; compound with trifluoro-acetic acid], the IC50 (HTRF, 0.02% BSA, 37° C. 1 h) is 0.0062 µM.

Regarding `COCCOCCOCCOCCOC(=O)c1ccc(NC(=O)[C@@H]2N[C@@H](CC(C)(C)C)[C@](C#N)(c3ccc(Cl)cc3F)[C@H]2c2cccc(Cl)c2F)c(OC)c1` [Example 49, 4-{[(2R,3S,4R,5S)-4-(4-Chloro-2-fluoro-phenyl)-3-(3-chloro-2-fluoro-phenyl)-4-cyano-5-(2,2-dimethyl-propyl)-pyrrolidine-2-carbonyl]-amino}-3-methoxy-benzoic acid 2-{2-[2-(2-methoxy-ethoxy)-ethoxy]-ethoxy}-ethyl ester, hydrochloride], the IC50 (HTRF, 0.02% BSA, 37° C. 1 h) was 0.0139 µM. Still for that read-out and setting: the value for `COc1cc(C(=O)NCCOCCOCCOCCNC(=O)c2ccc(NC(=O)[C@@H]3N[C@@H](CC(C)(C)C)[C@](C#N)(c4ccc(Cl)cc4F)[C@H]3c3cccc(Cl)c3F)c(OC)c2)ccc1NC(=O)[C@@H]1N[C@@H](CC(C)(C)C)[C@](C#N)(c2ccc(Cl)cc2F)[C@H]1c1cccc(Cl)c1F` [Example 76, (2R,3S,4R,5S)-4-(4-Chloro-2-fluoro-phenyl)-3-(3-chloro-2-fluoro-phenyl)-4-cyano-5-(2,2-dimethyl-propyl)-pyrrolidine-2-carboxylic acid [4-(2-{2-[2-(2-amino-ethoxy)-ethoxy]-ethoxy}-ethylcarbamoyl)-2-methoxy-phenyl]-amide, dimer] was 0.0643 µM; that for `COc1cc(C(=O)OCCC(=O)OC(C)(C)C)ccc1NC(=O)[C@@H]1N[C@@H](CC(C)(C)C)[C@](C#N)(c2ccc(Cl)cc2F)[C@H]1c1cccc(Cl)c1F` [Example 37, 4-{[(2R,3S,4R,5S)-4-(4-Chloro-2-fluoro-phenyl)-3-(3-chloro-2-fluoro-phenyl)-4-cyano-5-(2,2-dimethyl-propyl)-pyrrolidine-2-carbonyl]-amino}-3-methoxy-benzoic acid 2-tert-butoxycarbonyl-ethyl ester] was 0.016 µM. As for `CNCC(=O)OCCOC(=O)c1ccc(NC(=O)[C@@H]2N[C@@H](CC(C)(C)C)[C@](C#N)(c3ccc(Cl)cc3F)[C@H]2c2cccc(Cl)c2F)c(OC)c1` [Example 32, 4-{[(2R,3S,4R,5S)-4-(4-Chloro-2-fluoro-phenyl)-3-(3-chloro-2-fluoro-phenyl)-4-cyano-5-(2,2-dimethyl-propyl)-pyrrolidine-2-carbonyl]-amino}-3-methoxy-benzoic acid 2-(2-methylamino-acetoxy)-ethyl ester, hydrochloride], for the setting “HTRF, 0.02% BSA, 37° C. 1 h”, the IC50 was determined as 0.0164 µM. On to `COc1cc(C(=O)OCCOC(=O)CN)ccc1NC(=O)[C@@H]1N[C@@H](CC(C)(C)C)[C@](C#N)(c2ccc(Cl)cc2F)[C@H]1c1cccc(Cl)c1F` [Example 30, 4-{[(2R,3S,4R,5S)-4-(4-Chloro-2-fluoro-phenyl)-3-(3-chloro-2-fluoro-phenyl)-4-cyano-5-(2,2-dimethyl-propyl)-pyrrolidine-2-carbonyl]-amino}-3-methoxy-benzoic acid 2-(2-amino-acetoxy)-ethyl ester], for which, under “HTRF, 0.02% BSA, 37° C. 1 h”, the IC50 worked out at 0.0172 µM. Regarding `COc1cc(C(=O)OCCOC(=O)CN(C)C(=O)OC(C)(C)C)ccc1NC(=O)[C@@H]1N[C@@H](CC(C)(C)C)[C@](C#N)(c2ccc(Cl)cc2F)[C@H]1c1cccc(Cl)c1F` [Example 31, 4-{[(2R,3S,4R,5S)-4-(4-Chloro-2-fluoro-phenyl)-3-(3-chloro-2-fluoro-phenyl)-4-cyano-5-(2,2-dimethyl-propyl)-pyrrolidine-2-carbonyl]-amino}-3-methoxy-benzoic acid 2-[2-(tert-butoxycarbonyl-methyl-amino)-acetoxy]-ethyl ester], the IC50 (HTRF, 0.02% BSA, 37° C. 1 h) is 0.0137 µM.
